Data set [1] in a line: PK study in mice, single dose i.p. As to conditions: mouse, in vivo, ip, single dose 50 mg/kg i.p.
For the next data set, the system named is TEX cells. The data set is described as follows: Chemical screen, MTS assay, TEX cells. It is filed as cell-based, human. As to conditions: 10 μM, 72 hours. An excerpt: To identify compounds active against leukemia stem cells, a library of drugs (n=312) with well-characterized pharmacokinetics and toxicology and a wide therapeutic window was compiled. This library was then screened to identify agents that reduced the viability of TEX and M9-ENL1 cells. TEX and M9-ENL1 cells were derived from lineage-depleted human cord blood cells (Lin-CB) transduced with TLS-ERG or MLL-ENL oncogenes, respectively, and, as shown previously, display properties of stem cells including hierarchal differentiation and marrow repopulation^14, 15. In this screen, TEX and M9-ENL1 cells were treated with aliquots of the compounds. After incubation, cell growth and viability was measured by the MTS assay. From this screen, tigecycline was identified.
TEX, and M9-ENL-1 cells were seeded into 96-well polystyrene tissue culture plates (Corning). […] 72 (TEX) and 48 (M9-ENL-1) hours after incubation, cell growth and viability was measured by MTS assay. […]
Cell growth and viability was assessed by the MTS assay (Promega, Madison, Wis.) according to the manufacturer's instructions. Apoptosis and cell death was measured by Annexin V-fluroscein isothiocyanate (FITC; Biovision Research Products, Mountain View, Calif.), propidium iodide staining and flow cytometry according to the manufacturer's instructions and as previously described^30. […]
(Formazan colour is commonly taken as a measure of viable cells.)

A further data set relates to Cox-1, Cox-2, Cox-4 mRNA. The data set is described as follows: Quantitative RT-PCR of Cox mRNA. It is filed as cell-based, human. The conditions noted are these: TEX and primary AML cells, 2.5 μM and 5 μM. As to the method:
FIG. 4. […] (A) Cells from TEX, OCI-AML2 and two primary AML patients were treated with increasing concentrations (2.5 μM and 5 μM) of tigecycline for 36 and 48 hours of tigecycline. Total proteins were extracted and analyzed by western blotting for Cox-1, Cox-2, Cox-4, grp78, XIAP, actin and tubulin. (B) TEX and AML patient cells were treated with increasing concentrations (2.5 μM and 5 μM) of tigecycline. Cox-1, Cox-2, and Cox-4 mRNA expression relative 18S was determined by quantitative RT-PCR. Data is shown as mean±SD. (C) TEX cells were treated with increasing concentrations of tigecycline and chloramphenicol (CAP) for 72 hours. Complex I, II and IV enzyme activity relative to citrate synthase activity was determined as described in materials and methods. (D) Cells from TEX, primary AML patients, and normal donors were treated with increasing concentrations of tigecycline. Mitochondrial membrane potential (ΔΨ) was determined by staining cells with JC-1 dye, and flow cytometry analysis (Red/Green ratio). Reactive oxygen species generation (ROS) was determined by staining with h2-DCFDA and Dihydroethidium (DHE).

The test system of data set [2] is normal hematopoietic cells. The data set is described as follows: Methylcellulose colony formation assay, normal hematopoietic cells. In kind it is cell-based, human. The conditions noted are these: 5 μM, normal hematopoietic cells n=5, 14 days. As to the method:
FIG. 2. Tigecycline induces cell death and inhibits clonogenic growth in primary AML cells preferential over normal hematopoietic cells. Mononuclear cells from peripheral blood of leukemia patients (blast count>80%) and normal G-CSF expanded donors was treated with increasing concentrations of tigecycline for 48 hours. Cell viability was measured by Annexin-PI flow cytometry staining. Cell viability is expressed as a mean percentage plus or minus SD (n=3) relative to DMSO-treated cells. Mononuclear cells from primary AML patient samples (A, B) and normal peripheral blood cells (C) were plated in methylcelluose with 5 μM of Tigecycline. (D) Colony forming units were counted at 7 days (AML) and 14 days (Normal) post plating. […]
To assess clonogenic growth, primary AML cells (1.0×10^5/mL) or granulocyte colony-stimulating factor (G-CSF) mobilized PBSCs (1.0×10^5/mL) were plated in duplicate with increasing concentrations of tigecycline in MethoCult GF H4434 medium (StemCell Technologies, Vancouver, BC) containing 1% methycellulose in IMDM, 30% FCS, 1% bovine serum albumin, 3 U/mL of recombinant human erythropoietin, 10^−4 M of 2-mercaptoethanol, 2 mM of L-glutamine, 50 ng/mL of recombinant human stem cell factor, 10 ng/mL of GM-CSF, and 10 ng/mL of rh IL-3). Seven days (AML samples) or 14 days (normal PBCS) after plating, the number of colonies was counted as previously described^31.

On to `CN(C)c1cc(NC(=O)CNC(C)(C)C)c(O)c2c1C[C@H]1C[C@H]3[C@H](N(C)C)C(O)=C(C(N)=O)C(=O)[C@@]3(O)C(O)=C1C2=O` [tigecycline], for which, in data set [1], the Tmax was approximately 0.5 h and the half-life is approximately 4.5 h. Also, the “cell growth and viability in screen” value in the data set on TEX cells is “cell growth inhibitor”. Also, the “mRNA expression of Cox-1, Cox-2 over Cox-4” value in the data set with Cox-1, Cox-2, Cox-4 mRNA is “preferential increased mRNA expression”. For the same compound, the “reduction of clonogenic growth” value in data set [2] was 34±5%.

In general, Tmax refers to the time at which the peak concentration occurs. For orientation: half-life means the time in which the quantity being followed falls by half. A higher half-life goes with slow decline.
